Publication PMC6523531, “Mechanistic Studies on the Absorption-Enhancing Effects of Gemini Surfactant on the Intestinal Absorption of Poorly Absorbed Hydrophilic Drugs in Rats” (Pharmaceutics, 2019)

Experiments:
[1] = test system: Caco-2 cell monolayers; assay: Transepithelial electrical resistance (TEER) of Caco-2 cell monolayers; assay type: cell-based, Human
Procedure: Caco-2 cells (passage 45) were cultured in 175-cm^2 culture flask (Thermo Fisher Scientific™, Waltham, MA, USA). The culture medium consisted of DMEM containing 10% FBS, 0.1 mM MEM–NEAA, 2 mM glutamine, 100 U/mL penicillin, and 100 µg/mL streptomycin [30]. Cells were cultured in a humidified atmosphere of 5% CO2 at 37 °C. The culture medium was changed every two days. When the cultured Caco-2 cells became sub-confluent, they were seeded onto 12-mm Transwell® with 0.4-µm pore polycarbonate membrane inserts (Corning Inc., New York, NY, USA) at a density of 1 × 10^5 cells/insert. The transepithelial transport studies were performed when the transepithelial electrical resistance (TEER) values were more than 500 Ω·cm^2 (i.e., after 21 days). Briefly, after removing the incubation medium by aspiration, the apical and basal sides were washed thrice by Hank’s Balanced Salt (HBSS) solution (pH 7.4). The cells were incubated in HBSS (pH 6.0) for the apical side and HBSS (pH 7.4) for the basal side for 20 min at 37 °C. HBSS supplemented with 1 mg/mL glucose was used in all cell culture experiments. After removing the washing solution by aspiration, 500 µL of 10 µM CF in a HBSS (pH 6.0) solution with or without various concentrations (0.001% v/v, 0.01% v/v, 0.025% v/v, 0.05% v/v, and 0.1% v/v) of SLG-30, 0.1% (w/v) and 1% (w/v) NaGC or 0.05% (w/v) sodium laurate were added to the apical side at zero time, whereas precisely 1500 µL of HBSS (pH 7.4) was added to the basal side at 37 °C. The cells were kept at 37 °C and 5% CO2 and were continuously agitated on a shaker during the transport experiments.
The TEER values were measured by Millicell® (ERS-2 Volt-Ohm Meter, Billerica, MA, USA) at the predetermined times up to 24 h, and the initial values were considered as 100%. The samples from the basal side were withdrawn at predetermined time points up to 24 h. The samples were replaced with an equal volume of HBSS (pH 7.4). CF was determined as previously mentioned. The apparent permeability coefficients Papp (cm/s) for the transported CF was determined by the following equation: Papp=dXR/dt×1/A×1/C0 where Papp is the apparent permeability coefficient in centimeters per second, XR is the amount of CF in moles in the receptor side, dXR/dt is the flux across the monolayer, A is the diffusion area (i.e., in square centimeters), and C0 is the initial concentration of CF in the donor side in moles per milliliter.

[2] = test system: Caco-2 cells; assay: Caco-2 cell damage by LDH release; assay type: cell-based, Human
Procedure: After the transport studies were over, the solution on the apical side of each well was collected. Cell injury caused by SLG-30 was determined by tracking the LDH release. The cell precipitate and the monolayers left on the filters were solubilized with 1% (v/v) Triton X-100. The solutions from apical sides and the lysates were centrifuged for 7 min at 200× g at a temperature of 4 °C. The activities of LDH in the supernatant were measured. (LDHrelease) stands for the activity of the LDH released into the apical side in the existence of SLG-30. (LDHcell) stands for the activity of the LDH obtained from the cell lysate. LDHreleased% was calculated by the following equation:LDHrelease% = LDHrelease × 100/(LDHrelease + LDHcells)

[3] = test system: claudin-1; assay: Western blotting of claudin-1 in rat small intestine after in situ treatment; assay type: in vivo; conditions: treatment with 0.5% (v/v) SLG-30 for 1 h, vs control
Procedure: (§1) Western blotting was performed by the method described previously with slight modifications. Three male Wistar rats weighing 250 g were prepared to perform an in situ closed-loop method on the small intestine, as mentioned above. A control study, a treatment study, and a pretreatment study were conducted on the first, second, and third rat, respectively. For the control study, only PBS solution (pH 7.4) was administered into the small intestine, and then, the rat was sacrificed, while for the treatment study, SLG-30 was administered for 1 h, and then, the rat was sacrificed without washing the SLG-30 out. The pretreatment study was performed by administrating SLG-30 for 1 h then washing it out with PBS solution (pH 7.4), followed by sacrificing the rat after 4 h. The small intestine (60 cm) of three rats was taken and treated, as mentioned above, for extracting the BBMVs. […]
(§2) The expression levels of proteins from the claudin family, in the homogenate of the small intestine membrane, were evaluated by western blotting. […] The signals were visualized by luminescence imaging (Fujifilm Luminescent Image Analyzer LAS4000 System, Tokyo, Japan). The intensity of each signal was corrected using the values obtained from the β-actin bands, and the relative protein intensity was expressed as the fold change compared to the relative protein intensity in the normal group.

[4] = test system: claudin-4; assay: Western blotting of claudin-4 in rat small intestine after in situ treatment; assay type: in vivo
Procedure: as §1, §2

In the case of `CCCCCCCCCCCC(=O)NC(CCC(=O)NCCCCC(NC(=O)CCC(NC(=O)CCCCCCCCCCC)C(=O)O)C(=O)O)C(=O)O` (centres unmarked) [SLG-30, sodium dilauramidoglutamide lysine], the TEER values ([1]; SLG-30 at all concentrations 0.001-0.1% (v/v), first hour) is reported as “significant decrease”, the TEER recovery ([1]; higher concentrations of SLG-30, without removing SLG-30, up to 24 h) is reported as “did not recover to the baseline” and the TEER recovery ([1]; lower concentrations of SLG-30, without removing SLG-30, up to 24 h) is reported as “started to recover”. For the same compound, the “activity of LDH released from Caco-2 cells vs control” value ([2]; SLG-30 0.001-0.1% (v/v), after the transport studies, n = 6) was “did not increase”, the Caco-2 cell injury ([2]; SLG-30 at concentrations used in in vivo studies) was “the cells were detached and severely injured” and the “decrease of the intensity of the claudin-1 band” value [3] was 57%. For the same compound, the “claudin-4 expression level less than the control” value ([4]; pretreatment study: 0.5% (v/v) SLG-30 for 1 h, washed out, proteins extracted after 4 h) was roughly 45% and the “decrease of the intensity of the claudin-4 band” value ([4]; treatment with 0.5% (v/v) SLG-30 for 1 h, rat small intestine, vs control) was 64%.
